Test results published in article PMC8399565, “Fluorescence Cross-Correlation Spectroscopy Yields True Affinity and Binding Kinetics of Plasmodium Lactate Transport Inhibitors” (Pharmaceuticals, 2021).
Entries after “also recorded” stand apart in the source; their conditions may differ.

Tests used:
PfFNT-GFP = target: T1, PfFNT-GFP (Plasmodium falciparum, UniProt O77389); experiment: FCCS loss of signal screening competition assay; assay type: binding
T1 construct: The DNA of full-length PfFNT from Plasmodium falciparum 3D7 was cloned as a C-terminal GFP fusion; expressed in transfected cells; intact cells for imaging, LMNG-solubilized membranes or lysates for FCCS
Experimental: With a loss of signal screening assay using the GFP fusion of PfFNT wildtype and BH296-DY647 as the interaction pair, we set out to test the FCCS approach on a selection of 26 compounds that were validated before using functional lactate transport assays in yeast. In more detail, HEK cell lysates were adjusted to a PfFNT-GFP concentration of 4 nM and mixed with fluorescence-labeled BH296-DY647 at a final concentration of 80 nM, approximating the previously determined KD-value of this interaction. A total of 20 µL of the mix was then dispensed into the wells of a glass-bottom 384 microtiter plate. […] The wells were then analyzed by FCCS, Ki values were determined, and compared by a scatter plot to the IC50 values from the previous functional assays in yeast (Figure 6). […]
FCCS measurements were conducted in 384-well glass-bottom plates (cat. no PS96B-G175, SWISSCI, Switzerland) using an Insight plate reader (Evotec Technologies, Germany) fitted with a U-Apo300 40x water immersion lens, NA 1.15 (Olympus, Japan). […] Fluorescence fluctuations were recorded for 8 s with 12 repetitions and analyzed afterward using FCS+plus Analyze 1.1P (Evotec technologies, Version 1.2.5g). […] All KD and IC50 values, as well as kinetic parameters, were determined from three independently repeated experiments. […]

PfFNT = details: cited from earlier work; for IC50: PfFNT expressed in Saccharomyces cerevisiae yeast
[1] = tested on: Plasmodium falciparum 3D7 parasites; design: method as in PMID 23798988; details: in vitro; cited from earlier work
PfFNT G107S = tested on: PfFNT G107S; design: method as in PMID 23798988; details: PfFNT G107S point mutation; cited from earlier work
[2] = tested on: resistant parasites that carried a single PfFNT G107S point mutation; design: method as in PMID 23798988; details: cited from earlier work

T1 sequence (O77389 whole entry, the tested form may be a part): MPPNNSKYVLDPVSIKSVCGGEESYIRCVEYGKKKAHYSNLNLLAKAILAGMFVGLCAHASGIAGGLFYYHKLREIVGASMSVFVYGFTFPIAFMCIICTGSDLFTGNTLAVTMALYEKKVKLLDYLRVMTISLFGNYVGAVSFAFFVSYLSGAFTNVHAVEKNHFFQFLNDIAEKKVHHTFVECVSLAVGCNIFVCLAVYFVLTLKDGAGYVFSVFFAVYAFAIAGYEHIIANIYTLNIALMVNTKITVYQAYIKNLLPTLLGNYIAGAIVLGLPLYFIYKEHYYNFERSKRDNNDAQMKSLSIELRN

| SMILES | Ki (PfFNT-GFP) | Ki (affinity) from FCCS competition screen (PfFNT-GFP; 4 nM PfFNT-GFP, 80 nM BH296-DY647, 1 h room temperature) | activity in functional yeast lactate transport assay (PfFNT; validated before) | IC50 (PfFNT) | EC50 [1] | IC50 (PfFNT G107S) | EC50 [2] |
| --- | --- | --- | --- | --- | --- | --- | --- |
| O=C(/C=C(\O)C(F)(F)C(F)(F)F)c1ccc(C(=O)/C=C(\O)C(F)(F)C(F)(F)F)cc1 [BH454] | < 100 nM | double-digit nanomolar range | little activity; also recorded: not very effective |  |  |  |  |
| O=C1CC(O)(C(F)(F)C(F)(F)F)Oc2ccccc21 (stereo not drawn) [MMV000972, reference compound] |  |  |  | 170 nM | 1700 nM |  |  |
| COc1ccc2c(c1)OC(O)(C(F)(F)C(F)(F)F)CC2=O (stereo not drawn) [MMV007839] |  |  |  | 170 nM | 140 nM | 21000 nM | 35000 nM |
